According to patent US20080132569A1, “Antifungal Compositions for Inhibiting Growth of Wood Decay Fungi and Use Thereof” (priority 2006, published 2008):
Converted amounts (≈) assume the structure as drawn. Read-outs that look alike come from different tables or passages of the source.

Legend:
[1] = Antifungal assay, mycelium growth on PDA containing the chemical; conditions: S. commune; for Antifungal index (%): Table 2
[2] = Antifungal activity on paper (CNS 2690, TAPPI T487 cm-93); conditions: C. globosum, 14 days
[3] = as above; conditions: A. niger, 14 days
[4] = as above; conditions: A. terreus, 14 days
[5] = Antifungal assay, mycelium growth on PDA containing the chemical; conditions: W. extensa; for Antifungal index (%): Table 2
[6] = Antifungal assay, mycelium growth on PDA (fungi); conditions: soft rot, Cu tolerant, and brown rot fungi
[7] = Antifungal assay, mycelium growth on PDA containing the chemical; conditions: L. sulphureus
[8] = as above; conditions: T. versicolor
[9] = as above; conditions: A. taxa; for Antifungal index (%): Table 2
[10] = as above; conditions: G. trabeum
[11] = Antifungal assay, mycelium growth on PDA (fungi); conditions: 100 μg/ml; W. extensa, P placenta, L. sulphureus, G. trabeum and F. pinicola
[12] = Antifungal assay, mycelium growth on PDA containing the chemical; conditions: C. globosum; for Antifungal index (%): Table 2
[13] = as above; conditions: L. betulina; for Antifungal index: Example 3, FIG. 2(A)
[14] = as above; conditions: F. pinicola; for Antifungal index (%): Table 2
[15] = as above; conditions: P. placenta; for Antifungal index (%): Table 2
[16] = Antifungal assay, mycelium growth on PDA (fungi)
[17] = 100 μg/cm^2 on filter paper, listed as octyl gallate
[18] = 400 μg/cm^2 on filter paper, listed as octyl gallate
[19] = Example 1, FIG. 1(A), read-out: IC50 (concentration that inhibited 50% of the mycelium growth)

CCCCCCCCOC(=O)c1cc(O)c(O)c(O)c1 [Octyl gallate, octyl gallate]
Antifungal index (%) ([1]; 25 μg/ml): 16%
Antifungal index (%) ([1]; 50 μg/ml): 40%
Antifungal index (%) ([1]; 100 μg/ml): 60%
Antifungal index (%) ([1]; 200 μg/ml): 83%
IC50 value ([1]; Table 3): 114 µg/mL (≈ 404 µM)
Percent inhibition ratio ([2]; 100 μg/cm^2 on filter paper): 100 ± 0%
Percent inhibition ratio [2, 17]: 100%
Percent inhibition ratio ([2]; 400 μg/cm^2 on filter paper): 100 ± 0%
Percent inhibition ratio ([3]; 100 μg/cm^2 on filter paper): 72 ± 7.6%
Percent inhibition ratio [3, 17]: 72%
Percent inhibition ratio ([3]; 400 μg/cm^2 on filter paper): 99 ± 1.0%
Percent inhibition ratio [3, 18]: 99%
Percent inhibition ratio ([4]; 100 μg/cm^2 on filter paper): 51 ± 4.6%
Percent inhibition ratio [4, 17]: 51%
Percent inhibition ratio ([4]; 400 μg/cm^2 on filter paper): 94 ± 8.5%
Percent inhibition ratio [4, 18]: 94%
Antifungal index (%) ([5]; 25 μg/ml): 3%
Antifungal index (%) ([5]; 50 μg/ml): 50%
Antifungal index (%) ([5]; 100 μg/ml): 75%
Antifungal index (%) ([5]; 200 μg/ml): 64%
IC50 value ([5]; Table 3): 50 µg/mL (≈ 177 µM)
IC50 value [6]: less than 50 μg/ml
Antifungal index (%) ([7]; 50 μg/ml, Table 2): 85%
Antifungal index (%) ([7]; 100 μg/ml, Table 1): 100 ± 0%
Antifungal index (%) ([7]; 100 μg/ml, Table 2): 96%
Antifungal index (%) ([7]; 200 μg/ml, Table 2): 100%
IC50 [7, 19]: 40 µM
IC50 value ([7]; Table 3): 50.6 µg/mL (≈ 179 µM)
Antifungal index (%) ([8]; 25 μg/ml, Table 2): 37%
Antifungal index (%) ([8]; 50 μg/ml, Table 2): 50%
Antifungal index (%) ([8]; 100 μg/ml, Table 1): 69 ± 9.1%
Antifungal index (%) ([8]; 100 μg/ml, Table 2): 69%
Antifungal index (%) ([8]; 200 μg/ml, Table 2): 85%
IC50 [8, 19]: 160 µM
IC50 value ([8]; Table 3): 173 µg/mL (≈ 613 µM)
Antifungal index (%) ([9]; 25 μg/ml): 73%
Antifungal index (%) ([9]; 50 μg/ml): 100%
Antifungal index (%) ([9]; 200 μg/ml): 100%
IC50 value ([9]; Table 3): <25 µg/mL
Antifungal index ([10]; 25 μg/ml, Example 3, FIG. 2(B)): 30%
Antifungal index (%) ([10]; 50 μg/ml, Table 2): 49%
Antifungal index (%) ([10]; 100 μg/ml, Table 1): 85 ± 26.2%
Antifungal index (%) ([10]; 100 μg/ml, Table 2): 77%
Antifungal index (%) ([10]; 200 μg/ml, Table 2): 93%
IC50 [10, 19]: 240 µM
IC50 value ([10]; Table 3): 50.8 µg/mL (≈ 180 µM)
inhibition (antifungal index), span over five fungi [11]: 75˜96%
Antifungal index (%) ([12]; 25 μg/ml): 82%
Antifungal index (%) ([12]; 50 μg/ml): 100%
Antifungal index (%) ([12]; 200 μg/ml): 100%
IC50 value ([12]; Table 3): <25 µg/mL
Antifungal index ([13]; 25 μg/ml): 16%
Antifungal index (%) ([13]; 25 μg/ml, Table 2): 16%
Antifungal index (%) ([13]; 50 μg/ml, Table 2): 28%
Antifungal index ([13]; 100 μg/ml): 42%
Antifungal index (%) ([13]; 100 μg/ml, Table 1): 43 ± 2.5%
Antifungal index (%) ([13]; 100 μg/ml, Table 2): 41%
Antifungal index (%) ([13]; 200 μg/ml, Table 2): 88%
IC50 [13, 19]: 470 µM
IC50 value ([13]; Table 3): 137.6 µg/mL (≈ 487 µM)
Antifungal index (%) ([14]; 25 μg/ml): 52%
Antifungal index (%) ([14]; 50 μg/ml): 78%
Antifungal index (%) ([14]; 100 μg/ml): 94%
Antifungal index (%) ([14]; 200 μg/ml): 100%
IC50 value ([14]; Table 3): <25 µg/mL
Antifungal index (%) ([15]; 25 μg/ml): 58%
Antifungal index (%) ([15]; 50 μg/ml): 75%
Antifungal index (%) ([15]; 100 μg/ml): 82%
Antifungal index (%) ([15]; 200 μg/ml): 84%
IC50 value ([15]; Table 3): <25 µg/mL
inhibition (antifungal index), span over three fungi ([16]; 100 μg/ml, L. betulina, T versicolor and S. commune): 41˜69%
IC50 value ([16]; white rot fungi): less than 200 μg/ml
